In US6790621B2 (Washington State University Research Foundation, priority 2001, dated 2004):

How the values were obtained:
Collies [1] = test: Ivermectin sensitivity (signs of neurotoxicosis) in Collies by mdr1 genotype; type: in vivo, dogs; conditions: oral 120 μg/kg
Method: Blood samples (8 ml) were obtained by jugular venipuncture from each of 13 clinically healthy Collies (Wil-O-Lane Kennels, Allegan, Mich.). […] Each dog was identified by an ear tattoo and housed in a run measuring 4×8 feet with metal walls and a raised, coated, metal screen floor. Facilities exceeded the minimal requirement specified by USDA guidelines.
We took advantage of a well-defined population of ivermectin-sensitive and non-sensitive Collies (Paul et al., Amer. J. Vet. Res. 61:482-483, 2000: Fassler et al., J. Am. Vet. Med. Assoc. 199:457-460, 1991). […] Clinical signs of neurotoxicity that were evaluated include apparent depression, ataxia, mydriasis, salivation, or drooling (Paul et al., Amer. J. Vet. Res. 61:482-483, 2000). Semi-quantitative reverse transcriptase PCR analysis was conducted on RNA isolated from ivermectin-sensitive and non-sensitive Collies to determine if mdr1 expression is lower in sensitive Collies than in non-sensitive Collies. Amplification of a 229-bp product of the canine glyceraldehyde 3-phosphate dehydrogenase (GAPDH) gene was used as an internal standard to control for variability in reverse transcriptase and PCR reactions.

Collies [2] = conditions: Collies vs Beagles, one study; cited from earlier work
Collies [3] = conditions: cited from earlier work
Collies [4] = test: Loperamide neurotoxicity in Collies; type: in vivo, dogs; conditions: one Collie of the study, homozygous for the mutant allele, treated with an appropriate dose as a puppy
Excerpt: Determination of the genotype of Collies is important clinically for several reasons. […] The dog tested homozygous for the mutant allele.

Row | Molecule | ivermectin sensitivity (neurotoxicity) (Collies [1]; Collies heterozygous (normal/mutant) or homozygous normal) | ivermectin sensitivity (neurotoxicity) (Collies [1]; Collies homozygous for the mdr1 deletion (mutant/mutant)) | fraction of the lethal dose of ivermectin for Beagles that was lethal for Collies (Collies [2]) | concentration in brain tissue (Collies [3]; affected Collies) | neurotoxicity in Collies (Collies [3]; doses routinely used in other breeds) | neurologic toxicity (Collies [4])
1 | Ivermectin | not sensitive to ivermectin neurotoxicity | exhibit ivermectin sensitivity | 1/200 | – | – | –
2 | CN(C)C(=O)C(CCN1CCC(O)(c2ccc(Cl)cc2)CC1)(c1ccccc1)c1ccccc1 [loperamide, Loperamide] | – | – | – | high concentrations in brain tissue | cause neurotoxicity | severe (nearly fatal) neurologic toxicity
